Test results taken from US7067262B2, “Cell line for the expression of an α2δ2 calcium channel subunit and methods of use” (Warner Lambert Company LLC, priority 2000, dated 2006).
Where two headings read alike, the source gives them in different places.

What was measured:
[1] = molecular target: T1, human α2δ2 (hα2δ2) calcium channel subunit (Homo sapiens, UniProt Q9NY47); assay: [3H]gabapentin radioligand binding to membranes from HEK293 stable cell line GKS07; details: for affinity in competition with [3H]gabapentin binding, in words: hα2δ2
T1 construct: covered the whole open reading frame of hα2δ2 cDNA; expressed in transfected cells
Procedure: Cell culture and transfection. COS-7 and HEK293 cells were cultured in DMEM and RPMI 1640 media, respectively. The media were supplemented with 50 units/mL penicillin, 50 μg/mL streptomycin, and 10% heat-inactivated fetal bovine serum (FBS), in a humidified incubator with 95% air and 5% CO2 at 37° C. For transient transfection into COS-7 cells, 20 μg of plasmid DNA (vector or the same vector with α2δ insert) was incubated with 30 μL of lipofectamine. The mixture was overlaid onto the cells in 1.5 mL serum-free medium and incubated for 5 hours. Then FBS was added to the dishes to bring the final concentration to 10%. The medium was changed next morning. Forty-eight hours after the transfection, the cells were harvested for membrane preparation. For stable transfection of porcine α2δ1 and human α2δ2 into HEK 293 cells, the same procedure was applied as that for a transient transfection except for that 800 μg/mL G418 (gentacin) was added to the cells 48 hours after the transfection. […] The cell line has ATCC No. PTA-1823. In addition, hosts for expression of α2δ2 protein binding assays can also include eukaryotic expression systems such as yeast, insect cells, and mammalian cells (CHO, COS-7, HEK293, etc.).
(§1) Membrane preparation. Membranes were prepared from tissues or cultured cells. The cells were washed twice with cold PBS and then scraped off with cold buffer containing Tris (5 mM, pH 7.4), EDTA (5 mM), PMSF (0.1 mM), leupeptin (0.02 mM), and pepstatin (0.02 mM). The cells were incubated on ice for 30 minutes, followed by sonication for 30 to 40 seconds. For membrane preparations from tissues, the tissues were sliced into small pieces and subjected to sonication at interval of 10 seconds 4 times. The resulting homogenates from tissues or cultured cells were centrifuged for 10 minutes at 750 to 1000×g, and then the supernatants were centrifuged at 50,000×g for 30 minutes. The resulting pellets were resuspended in the same buffer as described above.
Binding assays. […] The membranes (100 μg of proteins for transiently transfected cells, 20 μg for GKS02 cell membranes, and 10 μg for GKS07 cell membranes) were incubated in 10 mM HEPES (N-[2-hydroxyethyl]piperazine-N′-[2-ethanesulfonic acid]) (pH 7.4) for 40 to 50 minutes at room temperature, and then filtered onto pre-wetted GF/C membranes and quickly washed five times with 3 mL of ice cold 50 mM Tris buffer (pH 7.4). The filters were dried and counted in a liquid scintillation counter. For determining nonspecific binding, the binding assays were performed in the presence of 10 μM pregabalin (Gee N. S., Brown J. P., Dissanayake V. U., Offord J.; Thurlow R., Woodruff G. N., J. Biol. Chem., 1996;271:5768–5776). The specific binding was obtained by subtracting nonspecific binding from the total binding. Clone #7 was identified as the highest α2δ2 subunit expressing clone. Binding assays can also be performed using recombinant and/or purified α2δ2 protein from human and other mammalian species, for screening α2δ2 subtype-selective inhibitors.

[2] = molecular target: T2, porcine α2δ1 (pα2δ1) calcium channel subunit (Sus scrofa, UniProt A0A287BIN3); assay: [3H]gabapentin radioligand binding to membranes from HEK293 stable cell line GKS02; details: for affinity in competition with [3H]gabapentin binding, in words: pα2δ1
T2 construct: expressed in transfected cells
Procedure: Cell culture and transfection. […] The media were supplemented with 50 units/mL penicillin, 50 μg/mL streptomycin, and 10% heat-inactivated fetal bovine serum (FBS), in a humidified incubator with 95% air and 5% CO2 at 37° C. For transient transfection into COS-7 cells, 20 μg of plasmid DNA (vector or the same vector with α2δ insert) was incubated with 30 μL of lipofectamine. The mixture was overlaid onto the cells in 1.5 mL serum-free medium and incubated for 5 hours. Then FBS was added to the dishes to bring the final concentration to 10%. The medium was changed next morning. Forty-eight hours after the transfection, the cells were harvested for membrane preparation. For stable transfection of porcine α2δ1 and human α2δ2 into HEK 293 cells, the same procedure was applied as that for a transient transfection except for that 800 μg/mL G418 (gentacin) was added to the cells 48 hours after the transfection. […] In addition, hosts for expression of α2δ2 protein binding assays can also include eukaryotic expression systems such as yeast, insect cells, and mammalian cells (CHO, COS-7, HEK293, etc.).
as §1
Binding assays. […] The membranes (100 μg of proteins for transiently transfected cells, 20 μg for GKS02 cell membranes, and 10 μg for GKS07 cell membranes) were incubated in 10 mM HEPES (N-[2-hydroxyethyl]piperazine-N′-[2-ethanesulfonic acid]) (pH 7.4) for 40 to 50 minutes at room temperature, and then filtered onto pre-wetted GF/C membranes and quickly washed five times with 3 mL of ice cold 50 mM Tris buffer (pH 7.4). The filters were dried and counted in a liquid scintillation counter. […] The specific binding was obtained by subtracting nonspecific binding from the total binding.

T1 sequence (Q9NY47 19-1145 isoform Q9NY47-3 limits assumed): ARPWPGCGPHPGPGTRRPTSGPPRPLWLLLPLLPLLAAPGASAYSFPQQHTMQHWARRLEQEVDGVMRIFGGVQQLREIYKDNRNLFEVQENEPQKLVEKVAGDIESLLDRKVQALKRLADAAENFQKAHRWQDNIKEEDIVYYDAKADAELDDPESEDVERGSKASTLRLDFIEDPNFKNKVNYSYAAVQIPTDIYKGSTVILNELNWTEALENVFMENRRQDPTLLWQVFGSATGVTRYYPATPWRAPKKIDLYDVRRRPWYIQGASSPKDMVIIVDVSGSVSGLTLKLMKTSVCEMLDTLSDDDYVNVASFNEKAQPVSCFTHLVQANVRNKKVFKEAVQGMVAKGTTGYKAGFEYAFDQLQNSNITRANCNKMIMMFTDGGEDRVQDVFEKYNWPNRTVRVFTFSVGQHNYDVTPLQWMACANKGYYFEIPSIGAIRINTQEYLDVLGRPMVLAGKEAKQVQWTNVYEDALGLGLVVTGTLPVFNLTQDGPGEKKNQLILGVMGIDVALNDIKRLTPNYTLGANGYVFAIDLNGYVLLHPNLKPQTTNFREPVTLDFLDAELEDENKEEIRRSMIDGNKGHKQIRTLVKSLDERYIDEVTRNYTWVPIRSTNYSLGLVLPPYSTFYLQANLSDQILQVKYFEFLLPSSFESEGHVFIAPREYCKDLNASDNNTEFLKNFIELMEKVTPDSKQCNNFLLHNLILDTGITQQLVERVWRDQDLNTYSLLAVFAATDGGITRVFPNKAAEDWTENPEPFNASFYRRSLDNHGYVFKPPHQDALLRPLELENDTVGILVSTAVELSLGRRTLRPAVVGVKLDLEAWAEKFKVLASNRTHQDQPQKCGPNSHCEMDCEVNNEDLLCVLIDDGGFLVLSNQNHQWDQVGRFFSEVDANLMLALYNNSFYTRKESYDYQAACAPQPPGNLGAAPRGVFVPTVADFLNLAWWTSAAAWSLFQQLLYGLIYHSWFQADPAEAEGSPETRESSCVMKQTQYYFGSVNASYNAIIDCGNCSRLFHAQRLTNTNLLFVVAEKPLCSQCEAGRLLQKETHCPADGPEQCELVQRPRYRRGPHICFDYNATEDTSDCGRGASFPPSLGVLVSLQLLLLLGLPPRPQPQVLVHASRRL
T1 sequence (Q9NY47 1002-1150 partner limits assumed): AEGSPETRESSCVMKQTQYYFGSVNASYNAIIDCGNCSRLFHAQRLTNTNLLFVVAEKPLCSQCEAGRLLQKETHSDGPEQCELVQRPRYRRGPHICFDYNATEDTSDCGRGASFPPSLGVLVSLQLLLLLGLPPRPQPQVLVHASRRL
T2 sequence (A0A287BIN3 25-1109): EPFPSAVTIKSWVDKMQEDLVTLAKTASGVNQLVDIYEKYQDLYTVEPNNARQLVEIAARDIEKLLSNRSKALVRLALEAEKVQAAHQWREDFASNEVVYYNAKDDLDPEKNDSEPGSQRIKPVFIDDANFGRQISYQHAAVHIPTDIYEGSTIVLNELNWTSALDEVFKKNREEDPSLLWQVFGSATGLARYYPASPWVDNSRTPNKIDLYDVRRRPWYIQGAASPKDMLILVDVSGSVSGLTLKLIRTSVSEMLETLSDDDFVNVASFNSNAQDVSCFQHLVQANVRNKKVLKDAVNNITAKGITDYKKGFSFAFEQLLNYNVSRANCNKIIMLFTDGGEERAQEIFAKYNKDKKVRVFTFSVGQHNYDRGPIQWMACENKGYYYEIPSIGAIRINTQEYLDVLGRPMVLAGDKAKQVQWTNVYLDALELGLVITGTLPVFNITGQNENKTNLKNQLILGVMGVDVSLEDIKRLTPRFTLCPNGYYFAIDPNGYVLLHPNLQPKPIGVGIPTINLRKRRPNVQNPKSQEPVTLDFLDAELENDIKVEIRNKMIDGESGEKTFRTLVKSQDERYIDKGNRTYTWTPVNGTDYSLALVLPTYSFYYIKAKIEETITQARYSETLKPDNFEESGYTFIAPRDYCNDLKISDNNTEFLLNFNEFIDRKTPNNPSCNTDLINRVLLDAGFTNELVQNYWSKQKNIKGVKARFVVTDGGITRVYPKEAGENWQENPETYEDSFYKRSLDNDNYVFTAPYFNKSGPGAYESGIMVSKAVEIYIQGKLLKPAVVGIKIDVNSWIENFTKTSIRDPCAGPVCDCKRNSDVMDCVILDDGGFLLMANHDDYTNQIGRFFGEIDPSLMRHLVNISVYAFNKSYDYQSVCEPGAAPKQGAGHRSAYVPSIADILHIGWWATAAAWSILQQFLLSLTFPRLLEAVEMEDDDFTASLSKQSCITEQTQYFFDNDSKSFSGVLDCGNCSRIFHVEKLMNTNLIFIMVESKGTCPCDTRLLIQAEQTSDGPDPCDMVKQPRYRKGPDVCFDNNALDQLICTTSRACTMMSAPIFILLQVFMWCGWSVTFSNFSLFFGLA

NC1(C(=O)O)CC2CCC1C2 (stereo not shown) [BCH]
affinity in competition with [3H]gabapentin binding, in words [1]: weak
IC50 ([1]; read-out: IC50 Values for Inhibition of [3H]Gabapentin Binding, GKS07 (hα2δ2), membranes from HEK293 cell line GKS07, 20 nM [3H]gabapentin): 775 nM
affinity in competition with [3H]gabapentin binding, in words [2]: weak
IC50 ([2]; read-out: IC50 Values for Inhibition of [3H]Gabapentin Binding, GKS02 (pα2δ1), membranes from HEK293 cell line GKS02, 20 nM [3H]gabapentin): 1030 nM

CC(C)C[C@@H](N)C(=O)O [D-leucine]
IC50 [1]: 152000 nM
IC50 [2]: 199000 nM

NCC1(CC(=O)O)CCCCC1 [Gabapentin, 1-(aminomethyl)cyclohexane acetic acid]
IC50 [1]: 282 nM

CC(C)C[C@H](N)C(=O)O [L-leucine]
IC50 [1]: 205 nM
affinity in competition with [3H]gabapentin binding, in words [1]: markedly more potent than its D-enantiomer
IC50 [2]: 118 nM
affinity in competition with [3H]gabapentin binding, in words [2]: markedly more potent than its D-enantiomer

N[C@@H](Cc1ccccc1)C(=O)O [L-phenylalanine]
IC50 [1]: 2960 nM
affinity in competition with [3H]gabapentin binding, in words [1]: weak
IC50 [2]: 825 nM

CC(C)C[C@H](CN)CC(=O)O [Pregabalin, (S+)-3-isobutyl GABA]
IC50 [1]: 96 nM
IC50 [2]: 149 nM
